Results: patent US20090270407A1, “FUNGICIDAL ISOXAZOLIDINES” (E. I. DU PONT DE NEMOURS AND COMPANY, priority 2008, published 2009)
Marks after values point to notes of the source that are not given here.

Tests used:
Conditions in all cases: 100 = 100 % disease control, 0 = no disease control relative to controls
[1] = test system: Erysiphe graminis f. sp. tritici; experiment: Test A: wheat powdery mildew, preventive spray on wheat seedlings, visual disease rating
Source text: (§1) General protocol for preparing test suspensions for Tests A-I: The test compounds were first dissolved in acetone in an amount equal to 3% of the final volume and then suspended at the desired concentration (in ppm) in acetone and purified water (50/50 mix) containing 250 ppm of the surfactant Trem® 014 (polyhydric alcohol esters). The resulting test suspensions were then used in Tests A-I. Spraying a 200 ppm test suspension to the point of run-off on the test plants was the equivalent of a rate of 500 g/ha. (An asterisk “*” next to the rating value indicates a 40 ppm test suspension.)
The test suspension was sprayed to the point of run-off on wheat seedlings. The following day the seedlings were inoculated with a spore dust of Erysiphe graminis f. sp. tritici (the causal agent of wheat powdery mildew) and incubated in a growth chamber at 20° C. for 8 days, after which time visual disease ratings were made.

Botrytis cinerea = experiment: Test E: tomato Botrytis, preventive spray on tomato seedlings, visual disease rating
Source text: (§2) General protocol for preparing test suspensions for Tests A-I: The test compounds were first dissolved in acetone in an amount equal to 3% of the final volume and then suspended at the desired concentration (in ppm) in acetone and purified water (50/50 mix) containing 250 ppm of the surfactant Trem® 014 (polyhydric alcohol esters). The resulting test suspensions were then used in Tests A-I. Spraying a 200 ppm test suspension to the point of run-off on the test plants was the equivalent of a rate of 500 g/ha.
The test suspension was sprayed to the point of run-off on tomato seedlings. The following day the seedlings were inoculated with a spore suspension of Botrytis cinerea (the causal agent of tomato Botrytis) and incubated in saturated atmosphere at 20° C. for 48 h, and then moved to a growth chamber at 24° C. for 3 additional days, after which time visual disease ratings were made.
(§3) All results are for 200 ppm except where followed by “*” which indicates 40 ppm.

Septoria tritici = experiment: Test D: wheat leaf blotch, preventive spray on wheat seedlings, visual disease rating; type: in vivo
Source text: A dash (−) indicates no test results.

[2] = test system: Puccinia recondita f. sp. tritici; experiment: Test B: wheat leaf rust, preventive spray on wheat seedlings, visual disease rating
Source text: as §2
The test suspension was sprayed to the point of run-off on wheat seedlings. The following day the seedlings were inoculated with a spore suspension of Puccinia recondita f. sp. tritici (the causal agent of wheat leaf rust) and incubated in a saturated atmosphere at 20° C. for 24 h, and then moved to a growth chamber at 20° C. for 7 days, after which time visual disease ratings were made.
as §3

Alternaria solani = experiment: Test F: tomato early blight, preventive spray on tomato seedlings, visual disease rating
Source text: as §1
The test suspension was sprayed to the point of run-off on tomato seedlings. The following day the seedlings were inoculated with a spore suspension of Alternaria solani (the causal agent of tomato early blight) and incubated in a saturated atmosphere at 27° C. for 48 h, and then moved to a growth chamber at 20° C. for 5 days, after which time visual disease ratings were made.
A dash (−) indicates no test results. All results are for 200 ppm except where followed by “*” which indicates 40 ppm.

Septoria nodorum = experiment: Test C: wheat glume blotch, preventive spray on wheat seedlings, visual disease rating

| Structure (SMILES) | Test A disease control rating ([1]; 200 ppm) [%] | Test E disease control rating (Botrytis cinerea; 200 ppm) [%] | Test D disease control rating (Septoria tritici; 200 ppm) [%] | Test B disease control rating ([2]; 200 ppm) [%] | Test F disease control rating (Alternaria solani; 200 ppm) [%] | Test C disease control rating (Septoria nodorum; 200 ppm) [%] | Test A disease control rating ([1]; 40 ppm (marked *)) | Test E disease control rating (Botrytis cinerea; 40 ppm (marked *)) | Test D disease control rating (Septoria tritici; 40 ppm (marked *)) | Test B disease control rating ([2]; 40 ppm (marked *)) | Test F disease control rating (Alternaria solani; 40 ppm (marked *)) | Test C disease control rating (Septoria nodorum; 40 ppm (marked *)) |
| --- | --- | --- | --- | --- | --- | --- | --- | --- | --- | --- | --- | --- |
| CN1OC(C)(c2cccnc2)CC1c1cccc2ccccc12 (mixture of isomers) [Compound 62] | 97 | 88 | 80 | 17 | 91 | 97 | – | – | – | – | – | – |
| CN1OC(C)(c2cccnc2)CC1c1ccc(-c2ccnn2CC(F)(F)F)cc1 (mixture of isomers) [Compound 63] | 21 | 0 | 36 | 0 | 8 | 0 | – | – | – | – | – | – |
| COc1ccc(C2CC(C)(c3cccnc3)ON2C)c2ccccc12 (mixture of isomers) [Compound 68] | 0 | 0 | 65 | 0 | 0 | 0 | – | – | – | – | – | – |
| CN1OC(C)(c2cccnc2)CC1c1ccc(-c2ccn(CC(F)(F)F)n2)cc1 (mixture of isomers) [Compound 80] | 0 | 0 | 94 | 0 | 0 | 0 | – | – | – | – | – | – |
| CN1OC(C)(c2cccnc2)CC1c1cccc(I)c1 (mixture of isomers) [Compound 87] | 0 | 0 | 84 | 0 | 0 | 0 | – | – | – | – | – | – |
| CN1OC(C)(c2cccnc2)CC1c1ccccc1I (mixture of isomers) [Compound 88] | 81 | 0 | 70 | 27 | 0 | 0 | – | – | – | – | – | – |
| CN1OC(C)(c2cccnc2)CC1c1cccc2c1OC(F)(F)O2 (mixture of isomers) [Compound 89] | 0 | 0 | 36 | 0 | 16 | 0 | – | – | – | – | – | – |
| CN(C)c1ccc(C2CC(C)(c3cccnc3)ON2C)c2ccccc12 (mixture of isomers) [Compound 90] | 0 | 0 | 35 | 0 | 0 | 0 | – | – | – | – | – | – |
| Cc1cccc(C2CC(C)(c3cccnc3)ON2C)c1 (mixture of isomers) [Compound 98] | – | – | – | – | – | – | 0* % | 0* % | 3* % | 0* % | 0* % | 0* % |
| Cc1ccccc1C1CC(C)(c2cccnc2)ON1C (mixture of isomers) [Compound 99] | 0 | 0 | 18 | 17 | 0 | 0 | – | – | – | – | – | – |
| COc1ccccc1C1CC(C)(c2cccnc2)ON1C (mixture of isomers) [Compound 100] | 21 | 26 | 13 | 0 | 8 | 0 | – | – | – | – | – | – |
| COC(=O)c1ccc(C2CC(C)(c3cccnc3)ON2C)cc1 (stereo not drawn) [Compound 39] | 88 | 90 | 32 | 0 | 0 | 51 | – | – | – | – | – | – |
| CN1OC(C)(c2cccnc2)CC1c1ccc(-n2ccc(-c3ccccc3)n2)cc1 (stereo not drawn) [Compound 40] | – | – | – | – | – | – | 78* % | 75* % | 77* % | 0* % | 0* % | 64* % |
| CN1OC(C)(c2cccnc2)CC1c1ccc(-n2ccc(-c3ccccc3)n2)cc1 (stereo not drawn) [Compound 41] | – | – | – | – | – | – | 78* % | 0* % | 65* % | 0* % | 0* % | 0* % |
| Cc1ccn(-c2ccc(C3CC(C)(c4cccnc4)ON3C)cc2)n1 (stereo not drawn) [Compound 42] | – | – | – | – | – | – | 71* % | 99* % | 88* % | 9* % | 97* % | 100* % |
| Cc1ccn(-c2ccc(C3CC(C)(c4cccnc4)ON3C)cc2)n1 (stereo not drawn) [Compound 43] | – | – | – | – | – | – | 0* % | 88* % | 79* % | 0* % | 52* % | 90* % |
| CN1OC(c2cccnc2)(C(F)(F)F)CC1c1ccc(-n2ccc(C(F)(F)F)n2)cc1 (stereo not drawn) [Compound 44] | – | – | – | – | – | – | 100* % | 0* % | 89* % | 19* % | 0* % | 69* % |
| CN1OC(c2cccnc2)(C(F)(F)F)CC1c1ccc(-n2ccc(C(F)(F)F)n2)cc1 (stereo not drawn) [Compound 45] | – | – | – | – | – | – | 96* % | 0* % | 52* % | 0* % | 0* % | 0* % |
| CN1OC(C)(c2cccnc2)CC1c1ccc(-n2ccc(-c3cccs3)n2)cc1 (stereo not drawn) [Compound 46] | – | – | – | – | – | – | 0* % | 78* % | 62* % | 0* % | 0* % | 0* % |
| CN1OC(C)(c2cccnc2)CC1c1ccc(-n2ccc(-c3cccs3)n2)cc1 (stereo not drawn) [Compound 47] | – | – | – | – | – | – | 35* % | 0* % | 42* % | 0* % | 0* % | 0* % |
| CN1OC(C)(c2cccnc2)CC1c1ccc(-n2ccc(-c3ccc(Br)cc3)n2)cc1 (stereo not drawn) [Compound 48] | – | – | – | – | – | – | 61* % | 20* % | 43* % | 0* % | 0* % | 0* % |
| CN1OC(C)(c2cccnc2)CC1c1ccc(-n2ccc(-c3ccc(Br)cc3)n2)cc1 (stereo not drawn) [Compound 49] | – | – | – | – | – | – | 61* % | 0* % | 27* % | 0* % | 0* % | 0* % |
| Cc1cc(C)n(-c2ccc(C3CC(C)(c4cccnc4)ON3C)cc2)n1 (stereo not drawn) [Compound 50] | – | – | – | – | – | – | 0* % | 84* % | 73* % | 0* % | 0* % | 87* % |
| Cc1cc(C)n(-c2ccc(C3CC(C)(c4cccnc4)ON3C)cc2)n1 (stereo not drawn) [Compound 51] | – | – | – | – | – | – | 0* % | 0* % | 32* % | 0* % | 0* % | 0* % |
| CN1OC(C)(c2cccnc2)CC1c1ccc(-c2cncnc2)cc1 (stereo not drawn) [Compound 52] | – | – | – | – | – | – | 0* % | 92* % | 76* % | 0* % | 59* % | 99* % |
| CN1OC(C)(c2cccnc2)CC1c1ccc(-c2cncnc2)cc1 (stereo not drawn) [Compound 53] | – | – | – | – | – | – | 0* % | 25* % | 68* % | 0* % | 31* % | 0* % |
| CN1OC(C)(c2cccnc2)CC1c1ccc(-c2cccs2)cc1 (stereo not drawn) [Compound 54] | – | – | – | – | – | – | 71* % | 99* % | 79* % | 9* % | 99* % | 98* % |
| CN1OC(C)(c2cccnc2)CC1c1ccc(-c2cccs2)cc1 (stereo not drawn) [Compound 55] | – | – | – | – | – | – | 61* % | 97* % | 93* % | 0* % | 85* % | 84* % |
| CN1OC(C)(c2cccnc2)CC1c1ccc(-n2cc(I)cn2)cc1 (stereo not drawn) [Compound 56] | – | – | – | – | – | – | 52* % | 94* % | 74* % | 0* % | 91* % | 99* % |
